Measurements as given in patent publication US20260176270A1 (Exelixis, Inc., priority 2022, published 2026).
Like-named read-outs stand apart in the source and are kept apart here.

Columns and labels:
PKMYT1 = target: T1, PKMYT1 (Homo sapiens, UniProt Q99640); assay: ADP-Glo PKMYT1 ATP-depletion assay; settings: 50 nM PKMYT1, 13.3 nM CDK1, read-out: Biochemical IC50
T1 construct: PKMYT1 (93 kD, full length, N-terminal GST tag from Signal Chem); GST (N); purchased Signal Chem
T1 sequence (Q99640 1-499): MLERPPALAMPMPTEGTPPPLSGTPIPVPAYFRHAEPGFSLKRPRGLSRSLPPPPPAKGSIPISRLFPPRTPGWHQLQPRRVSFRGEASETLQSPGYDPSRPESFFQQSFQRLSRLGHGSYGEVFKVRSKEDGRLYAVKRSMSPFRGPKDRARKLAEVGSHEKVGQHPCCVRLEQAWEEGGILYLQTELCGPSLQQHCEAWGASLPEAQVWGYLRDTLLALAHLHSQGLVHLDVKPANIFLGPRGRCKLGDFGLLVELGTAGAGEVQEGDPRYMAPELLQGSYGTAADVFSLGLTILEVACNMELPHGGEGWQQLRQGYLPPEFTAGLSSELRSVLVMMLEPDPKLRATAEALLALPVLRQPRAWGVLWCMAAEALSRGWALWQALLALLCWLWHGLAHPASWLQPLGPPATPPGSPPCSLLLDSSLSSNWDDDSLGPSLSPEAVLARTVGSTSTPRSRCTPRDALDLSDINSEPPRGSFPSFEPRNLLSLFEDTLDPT
Procedure: (§1) Biochemical IC50 values were determined via ADP-Glo™ assay. Cellular IC50 values were determined via AlphaLISA assay.
ADP-Glo™ PKMYT1 ATP-depletion assay. The activity of PKMYT1 is measured using a luciferase-luciferin based ATP detection reaction to quantify ATP depletion resulting from kinase-catalyzed phosphoryl transfer to CDK1 or autophosphorylation of PKMYT1. The ADP generated as a byproduct of the reaction is converted to ATP and used to drive a luciferase reaction. Test compounds were dissolved in DMSO and dispensed into Corning 3824 384-well plates prior to the experiment such that the final DMSO concentration was <1%. To the compounds was added 3 μL of PKMYT1 (93 kD, full length, N-terminal GST tag from Signal Chem). The reaction was started by the addition of 2 μL of CDK1 (58 kDa, full length, N-terminal GST tag from Signal Chem) and ATP in assay buffer (50 mM Hepes, 40 mM NaCl, 10 mM MgCl2, 1 mM DTT, 0.1 mg/mL BSA, 2.5 mM MnCl2). Final assay concentrations were 50 nM PKMYT1, 13.3 nM CDK1, and 88 µM ATP. Plates were centrifuged for 1 minute at 1000 RPM and incubated at RT for 120 minutes. After the incubation period, ADP-Glo™ reagent was added and the plates were incubated for another 40 minutes before finally adding the kinase detection reagent. 30 minutes after the addition, plates were placed on a PHERAstar® plate reader and read using the Luminescence Protocol, integration time at 0.5 seconds.

[1] = tested on: phosphorylation of CDK1 at Thr14 in HCC1806 cells; assay: Cell lysate AlphaLISA assay measuring inhibition of phosphorylation of CDK1 Thr14; type: cell-based; settings: read-out: Cellular IC50
Procedure: as §1
Cell lysate AlphaLISA® assay measuring inhibition of phosphorylation of CDK1 Thr14. Inhibition of phosphorylation of CDK1 at Thr14 was determined using AlphaLISA® SureFire® Ultra™ Kit from Perkin Elmer (ALSU-PCDK1-A10K). HCC1806 cells were seeded at 2K cells per well (50 μl/well) in 384-well plates (Corning 3570) and stored overnight at 37° C. and 5% CO2. The following day, the compounds dissolved in DMSO were introduced to the cells and incubated for 4 hours at 37° C. and 5% CO2. The cells were then washed with PBS using Blue®Washer and 10 μl of lysis buffer containing protease inhibitor was added. The plate was placed on an orbital shaker (at 4° C.) for 30 minutes and stored overnight at −80° C. for complete lysing. The next day, the plates were thawed at room temperature for at least 30 min. Reagents were prepared in a dimmed light setting (<100 lumens). The assay was run by first adding 5 μl of the acceptor mix (reaction buffer 1: reaction buffer 2: activation buffer: acceptor beads 47:47:4:2), covering the plate with foil, shaking for 2 minutes and incubating at RT for 60 minutes. The donor mix (dilution buffer: donor beads 47:3) was then added at 5 μl per well, placed on the shaker for 2 minutes and incubated at RT for 60 minutes before reading the plates on a PHERAstar® plate reader. The results were normalized to DMSO (0% Inhibition) and 3 μM of reference compound.

Row | IC50 (PKMYT1) [nM] | IC50 ([1]; Homo sapiens, HCC1806, 4 h) [µM] | IC50 ([1]; 4 hours) [µM] | Compound
1 | 1000 to 5000 | ≥ 5 | – | Cc1c(O)cccc1-c1c(N)c(C(N)=O)cc2ncc(=O)n(C)c12 [Compound 202]
2 | < 50 | – | 0.05 to 0.5 | Cc1ccc(O)c(C)c1-c1c(N)c(C(N)=O)cc2cc(Cl)cnc12 [Compound 177]
3 | ≥ 5000 | – | ≥ 5 | NC(=O)c1cc2nccnc2c(-c2cc(O)cnc2Cl)c1N (atropisomer, axis not shown) [Compound 164]
4 | 50 to 500 | 0.5 to 1 | – | Cc1c(O)cccc1-c1c(N)c(C(N)=O)nc2cccc(F)c12 [Compound 56, 3-Amino-5-fluoro-4-(3-hydroxy-2-methyl-phenyl)quinoline-2-carboxamide]
5 | 50 to 500 | 1 to 5 | – | NC(=O)c1cc2nccnc2c(-c2cccc(O)c2C(F)(F)F)c1N [Compound 199]
6 | ≥ 5000 | ≥ 5 | – | Cc1c(-c2c(N)c(C(N)=O)cc3nccnc23)ccnc1O [Compound 159]
7 | 50 to 500 | 1 to 5 | – | NC(=O)c1nc2cccnc2c(-c2cc(F)cc3[nH]ncc23)c1N [Compound 203]
8 | 1000 to 5000 | – | ≥ 5 | Cc1c(O)cccc1-c1c(N)c(C(N)=O)cc2nccnc12 (single isomer, unassigned) [Compound 89, (M)-7-amino-8-(3-hydroxy-2-methylphenyl)quinoxaline-6-carboxamide]
9 | ≥ 5000 | – | ≥ 5 | Cc1c(F)cncc1C1=c2ncccc2=NC(C(N)=O)C1N (stereo not shown) [Compound 225]
10 | ≥ 5000 | ≥ 5 | – | CC1=C(c2c(N)c(C(N)=O)nc3cccnc23)CCC[C@H]1O [Compound 309]
11 | 50 to 500 | – | 0.5 to 1 | Cc1c(O)cccc1-c1c(N)c(C(N)=O)cc2ncc(C(F)(F)F)nc12 [Compound 115, 7-Amino-8-(3-hydroxy-2-methylphenyl)-2-(trifluoromethyl)quinoxaline-6-carboxamide]
12 | ≥ 5000 | – | ≥ 5 | Cc1ccc(-c2c(N)c(C(N)=O)nc3cccnc23)c(C)c1O (atropisomer, axis not shown) [Compound 287]
13 | < 50 | – | 0.05 to 0.5 | Cc1nc2cc(C(N)=O)c(N)c(-c3cccc(O)c3C)c2nc1C (single isomer, unassigned) [Compound 92, (P)-7-Amino-8-(3-hydroxy-2-methylphenyl)-2,3-dimethylquinoxaline-6-carboxamide]
14 | 1000 to 5000 | ≥ 5 | – | COc1cnc(F)c(-c2c(N)c(C(N)=O)nc3cccnc23)c1 [Compound 229]
15 | 50 to 500 | 1 to 5 | – | NC(=O)c1cc2nccnc2c(-c2cc(O)ccc2F)c1N [Compound 114, 7-Amino-8-(2-fluoro-5-hydroxyphenyl)quinoxaline-6-carboxamide]
16 | ≥ 5000 | – | ≥ 5 | Cc1ccc(O)c(C)c1-c1c(N)c(C#N)cc2nccnc12 (atropisomer, axis not shown) [Compound 301]
17 | 50 to 500 | 1 to 5 | – | NC(=O)c1nc2cccnc2c(-c2cccc3[nH]ncc23)c1N [Compound 206]
18 | ≥ 5000 | ≥ 5 | – | Cc1ccc(C#N)cc1-c1c(N)c(C(N)=O)nc2cccnc12 [Compound 254]
19 | 1000 to 5000 | – | ≥ 5 | Cc1ccc(O)c(C)c1-c1c(N)c(C(N)=O)cc2nccnc12 (single isomer, unassigned) [Compound 85, (M)-7-amino-8-(3-hydroxy-2,6-dimethylphenyl)quinoxaline-6-carboxamide]
20 | 50 to 500 | 1 to 5 | – | Cc1c(O)cccc1-c1c(N)c(C(N)=O)nc2ncccc12 [Compound 237]
21 | ≥ 5000 | – | ≥ 5 | COc1ccc2nc(C(N)=O)c(N)c(-c3cccc(O)c3C)c2n1 (atropisomer, axis not shown) [Compound 175]

Row | IC50 (PKMYT1) [nM] | IC50 ([1]; Homo sapiens, HCC1806, 4 h) [µM] | IC50 ([1]; 4 hours) [µM] | Compound
22 | 1000 to 5000 | – | ≥ 5 | Cc1c(O)cccc1-c1c(N)c(C(N)=O)nc2cc(C(F)(F)F)cnc12 (atropisomer, axis not shown) [Compound 167]
23 | ≥ 5000 | ≥ 5 | – | Cc1c(O)cccc1-c1cc(C(N)=O)nc2c(C)ccc(C)c12 [Compound 52, 4-(3-Hydroxy-2-methylphenyl)-5,8-dimethylquinoline-2-carboxamide]
24 | 500 to 1000 | 1 to 5 | – | Cc1ccc(O)c(C)c1-c1c(N)c(C(N)=O)nc2cc(Cl)ccc12 [Compound 42, 3-Amino-7-chloro-4-(3-hydroxy-2,6-dimethylphenyl)quinoline-2-carboxamide]
25 | 1000 to 5000 | – | ≥ 5 | Cc1ccc(O)c(C)c1-c1c(N)c(C(N)=O)cc2cc(Cl)cnc12 (atropisomer, axis not shown) [Compound 235]
26 | 50 to 500 | 1 to 5 | – | Cc1cnc2c(-c3cccc(O)c3C)c(N)c(C(N)=O)cc2c1 [Compound 196]
27 | 1000 to 5000 | 1 to 5 | – | Cc1ccc(O)c(C)c1-c1c(N)c(C(N)=O)nc2ccc(C(F)(F)F)cc12 [Compound 34]
28 | < 50 | – | 0.05 to 0.5 | Cc1cnc2c(-c3cccc(O)c3C)c(N)c(C(N)=O)cc2n1 (atropisomer, axis not shown) [Compound 209]
29 | 50 to 500 | ≥ 5 | – | COc1cncc(-c2c(N)c(C(N)=O)cc3nccnc23)c1C [Compound 107, 7-amino-8-(5-methoxy-4-methylpyridin-3-yl)quinoxaline-6-carboxamide]
30 | 1000 to 5000 | ≥ 5 | – | NC(=O)c1cc2nccnc2c(-c2ccnc3[nH]ncc23)c1N [Compound 182]
31 | < 50 | – | < 0.05 | COc1ccnc2c(-c3cccc(O)c3C)c(N)c(C(N)=O)cc12 (atropisomer, axis not shown) [Compound 327]
32 | ≥ 5000 | – | ≥ 5 | NC(=O)c1nc2cccnc2c(-c2cccc3[nH]nc(F)c23)c1N (atropisomer, axis not shown) [Compound 304]
33 | ≥ 5000 | – | – | Cc1ccc(O)c(C)c1-c1c(N)c(C(N)=O)cc2nc(C)c(C)nc12 (atropisomer, axis not shown) [Compound 140]
34 | 50 to 500 | – | – | NC(=O)c1cc2nccnc2c(-c2cc(O)ccc2Cl)c1N (atropisomer, axis not shown) [Compound 151]
35 | 500 to 1000 | – | – | Cc1c(O)cccc1-c1c(N)c(C(N)=O)nc2nccnc12 (atropisomer, axis not shown) [Compound 195]
36 | < 50 | – | – | Cc1ccc(O)c(C)c1-c1c(N)c(C(N)=O)cc2nc(C)c(C)nc12 (atropisomer, axis not shown) [Compound 141]
37 | ≥ 5000 | – | – | NC(=O)c1cc2nccnc2c(-c2cc(O)ccc2Cl)c1N (atropisomer, axis not shown) [Compound 152]
38 | < 50 | – | – | Cc1c(O)cccc1-c1c(N)c(C(N)=O)nc2nccnc12 (atropisomer, axis not shown) [Compound 194]
39 | 50 to 500 | – | – | Cc1ccc2nc(C(N)=O)c(N)c(-c3cccc(O)c3C)c2c1 (atropisomer, axis not shown) [Compound 149]
40 | ≥ 5000 | – | – | Cc1ccc2nc(C(N)=O)c(N)c(-c3cccc(O)c3C)c2c1 (atropisomer, axis not shown) [Compound 150]
41 | ≥ 5000 | – | – | Cc1ccc(O)c(C)c1-c1cc(C(N)=O)cc2nccnc12 (atropisomer, axis not shown) [Compound 165]
